US10507209B2, “Quinazoline derivatives substituted by aniline, preparation method and use thereof” (XUANZHU PHARMA CO., LTD., priority 2010, dated 2019)
Structures can show the parent of a compound that is named as a salt. Where two headings read alike, the source gives them in different places. Marks after values point to notes of the source that are not given here.

Experiments:
[1] = system: A431 cells; test: In vitro cellular inhibitory activity on A431 (XTT); format: cell-based; settings: Homo sapiens, A-431, 72 h, read-out: IC50 A431 cells
[2] = system: H1975 cells; test: In vitro cellular inhibitory activity on H1975 (XTT); format: cell-based; settings: Homo sapiens, NCI-H1975, 72 hours
Description: Table 2 in vitro cellular inhibitory activities on H1975 (NSCLC, nonsmall-cell lung cancer)

[3] = system: Calu-3 cells; test: In vitro cellular inhibitory activity on Calu-3 (XTT); format: cell-based; settings: Homo sapiens, 72 hours
Description: Table 3 in vitro cellular inhibitory activities on Calu-3 (NSCLC nonsmall-cell lung cancer)

[4] = system: human-derived LN-229 glioblastoma xenograft; test: In vivo pharmacodynamic evaluation, human-derived LN-229 glioblastoma xenograft; parameters: species or system BALB/c nude mice; settings: 28 days after the administration
[5] = system: gallbladder carcinoma xenografts model GL6899; test: In vivo pharmacodynamic evaluation, gallbladder carcinoma xenografts model GL6899; parameters: species or system BALB/c nude mice
Experimental: GL6899, gallbladder carcinoma from a patient
Comparison between the two groups of data was tested by independent sample t test.

[6] = system: KYSE270 human esophageal carcinoma model; settings: for Relative Tumor Volume / T/C / TGI / Tumor Volume: 21 days after the administration
[7] = system: human-derived cholangiocarcinoma (10114) xenograft model; test: In vivo pharmacodynamic evaluation, human-derived cholangiocarcinoma (10114) xenograft model; parameters: species or system BALB/c nude mice
Experimental: 10114, cholangiocarcinoma from a patient.
Tumor tissues of human cholangiocarcinoma (10114) were cut into tumor blocks of volume of 3 mm×3 mm×3 mm which were inoculated subcutaneously in mice. The tumor volume was observed and measured. […] The efficacy was evaluated according to the tumor growth inhibition (TGI).
The experimental data were analyzed using statistical software SPSS 20.0. The data associated with the tumor volume was analyzed with T-test. **P<0.05 compared with the control group represents significant statistical difference.

[8] = system: 5637 cells; test: In vitro cellular inhibitory activity on 5637 bladder carcinoma cells (CTG kit); format: cell-based; settings: Homo sapiens, 72 hours
Experimental: The effect of the compound to be tested on 5637 (bladder carcinoma) cell proliferation was tested using CTG kit.
535 μl DMSO was added into an EP tube filled with 3.32 mg of Compound 18 and evenly shaken (10 mM);
590 μl DMSO was added into an EP tube filled with 3.16 mg of Compound AZD9291 and evenly shaken (10 mM);
The compound was diluted with DMSO by 4-fold from 10 mM to 2.5 mM, 625 μM, 156 μM, 39 μM, 9.8 μM, 2.4 μM, 0.61 μM, 0.15 μM, 0.04 μM in turn.
Formulating a stock solution of a 10-fold compound: 2 μl 1000-fold Compound 18 or AZD9291 was respectively added into a 198 μl culture medium and evenly shaken.
1) Plating in the 384-well plate with 250 cells/well/22.5 ul;
2) After 24 hours, each well was added with 2.5 ul 10-fold drug which was well diluted to make the final concentration of 10 μM, 2.5 μM, 625 nM, 156 nM, 39 nM, 9.8 nM, 2.5 nM, 0.610 nM, 0.153 nM, 0.04 nM.
3) The plate was placed in the CO2 incubator and incubated at 37° C. for 72 hours
2) Each well was added with 25 ul CellTiter-Glo® agent, mixed for 2 minutes and placed at room temperature while being kept in darkness for 10 minutes.
3) Reading the […] using EnVision 2104 Multilabel Reader.

[9] = system: NCI-N87 cell; test: In vitro cellular inhibitory activity on NCI-N87 gastric carcinoma cells (XTT); format: cell-based; settings: Homo sapiens, read-out: IC50 NCI-N87 cell
Experimental: For each compound, the above operation was triplicated. […] 2) The plate was placed in the CO2 incubator and incubated at 37° C. for 72 hours. 2) The culture medium was removed and each well was added with 150 μl XTT working solution. […] 4) Slightly and evenly shaking before reading the absorbance.

[10] = system: BT474 cells; test: In vitro cellular inhibitory activity on BT474 mammary cancer cells (XTT); format: cell-based; settings: Homo sapiens, BT-474, 72 hours
Experimental: BT474 cells (human breast ductal carcinoma cell, purchased from ATCC). […] The maximum concentration of the test compound was 10 μM, and there were 10 concentration gradients in total. For each compound, the operation was duplicated. […] 2) The plate was placed in the CO2 cell incubator and incubated at 37° C. for 72 hours. 2) The culture medium was removed; each well was added with 150 μl XTT working solution. […] 4) Slightly and evenly shaking before reading the absorbance.

[11] = system: SKOV-3 human-derived xenografts model in ovarian cancer; test: In vivo pharmacodynamic evaluation, SKOV-3 human-derived xenografts model in ovarian cancer; parameters: species or system BALB/c nude mice; settings: 14 days after the administration
Experimental: The tumor was then stripped under sterile conditions to remove the necrotic tissues and select the well developed tumor tissues which were inoculated subcutaneously into an animal again. In this way the tumor tissues were subjected to passage for twice in the body of the mice. […] The tumor blocks were inoculated subcutaneously to the right coastal region of the mice with an inoculation needle. […] The tumor size was measured twice a week with an […] caliper.

[12] = system: human-derived xenograft model HN2170; test: In vivo pharmacodynamic evaluation, head and neck cancer xenograft model HN2170; parameters: species or system BALB/c nude mice; settings: for Tumor Volume (Day 0): Day 0 (grouping, baseline); for T/C / TGI / Tumor Volume: 25 days after the administration
Experimental: HN2170, head and neck cancer from a patient.
They were administered totally 25 days.

[13] = 20 mg/kg p.o. once a day, 21 days
[14] = 20 mg/kg oral once a day, 21 days after the administration

C=CC(=O)Nc1cc2c(Nc3ccc(F)c(Cl)c3)ncnc2cc1OCCCN1CCOCC1 [CI-1033 hydrochloride, reference compound]
IC50 [1]: 0.402 µM
IC50 [2]: 0.157 µM
IC50 [3]: 0.686 µM

C=CC(=O)Nc1cc2c(Nc3ccc(F)c(Cl)c3)ncnc2cc1OCC[C@@H]1[C@H]2CN(C)C[C@@H]12 [Compound 8]
IC50 [2]: 0.306 µM
T/C ([4]; 30 mg/kg oral once a day): 21.3%
TGI ([4]; 30 mg/kg oral once a day): 78.7%
Tumor Volume ([4]; 30 mg/kg oral once a day): 121 ± 17 mm^3

C=CC(=O)Nc1cc2c(Nc3ccc(F)c(Cl)c3)ncnc2cc1OCC1CC2(CCN(C)CC2)C1 [Compound 18, N-[4-(3-chloro-4-fluorophenylamino)-7-((7-methyl-7-azaspiro[3.5]nonan-2-yl)methoxy)quinazolin-6-yl]-acrylamide]
Tumor Volume on day 0 ([5]; 20 mg/kg group, day 0 (grouping, baseline)): 135.53 ± 9.60 mm^3
T/C [5, 13]: 2.6%
TGI [5, 13]: 97.4%
Tumor Volume after adminstration of 21 days [5, 13]: 26.63 ± 2.37*** mm^3
Tolerability in mice with tumor ([6]; 10 mg/kg and 20 mg/kg): can tolerate the tested drugs well
Relative Tumor Volume ([6]; 10 mg/kg oral once a day): 0.33 ± 0.05
T/C ([6]; 10 mg/kg oral once a day): 2%
TGI ([6]; 10 mg/kg oral once a day): 98%
Tumor Volume ([6]; 10 mg/kg oral once a day): 40 ± 6 mm^3
Relative Tumor Volume ([6]; 20 mg/kg oral once a day): 0.11 ± 0.02
T/C ([6]; 20 mg/kg oral once a day): 1%
TGI ([6]; 20 mg/kg oral once a day): 99%
Tumor Volume ([6]; 20 mg/kg oral once a day): 14 ± 3 mm^3
Tumor Volume On Day 0 ([7]; 20 mg/kg group, Day 0 (grouping, baseline)): 138.6 ± 8.9 mm^3
Relative Tumor Volume [7, 14]: 77.13 ± 9.34%
T/C [7, 14]: 18.1%
TGI [7, 14]: 81.9%
Tumor Volume [7, 14]: 107.53 ± 15.80*** mm^3
IC50 [8]: 0.0386 µM
IC50 ([9]; NCI-N87, 72 hours, XTT): 0.0071 µM
IC50 [2]: 0.0923 µM
IC50 [10]: 0.0097 µM
T/C ([4]; 10 mg/kg oral once a day): 45.6%
TGI ([4]; 10 mg/kg oral once a day): 54.4%
Tumor Volume ([4]; 10 mg/kg oral once a day): 260 ± 27 mm^3
T/C ([4]; 20 mg/kg oral once a day): 34.0%
TGI ([4]; 20 mg/kg oral once a day): 66.0%
Tumor Volume ([4]; 20 mg/kg oral once a day): 191 ± 11 mm^3
T/C ([11]; 10 mg/kg oral once a day): 49.1%
TGI ([11]; 10 mg/kg oral once a day): 50.9%
Tumor Volume ([11]; 10 mg/kg oral once a day): 798 ± 88 mm^3
T/C ([11]; 20 mg/kg oral once a day): 32.1%
TGI ([11]; 20 mg/kg oral once a day): 67.9%
Tumor Volume ([11]; 20 mg/kg oral once a day): 540 ± 86 mm^3
IC50 [3]: 0.0382 µM
Tumor Volume (Day 0) ([12]; 20 mg/kg group): 143.1 ± 22.9 mm^3
T/C ([12]; 20 mg/kg oral once a day): 6.5%
TGI ([12]; 20 mg/kg oral once a day): 93.5%
Tumor Volume ([12]; 20 mg/kg oral once a day): 46.3 ± 10.6*** mm^3

C=CC(=O)Nc1cc2c(Nc3ccc(F)c(Cl)c3)ncnc2cc1OCCC1CC2(CCN(C)CC2)C1 [Compound 19 hydrochloride, N-[4-(3-chloro-4-fluorophenylamino)-7-(2-(7-methyl-7-azaspiro[3.5]nonan-2-yl)ethoxy)quinazolin-6-yl]-acrylamide hydrochloride]
IC50 [2]: 0.104 µM

C#Cc1cccc(Nc2ncnc3cc(OCCOC)c(OCCOC)cc23)c1 [Erlotinib hydrochloride, erlotinib hydrochloride, reference compound]
IC50 [2]: 3.98 µM
IC50 [3]: 1.32 µM

CS(=O)(=O)CCNCc1ccc(-c2ccc3ncnc(Nc4ccc(OCc5cccc(F)c5)c(Cl)c4)c3c2)o1 [Lapatinib ditosylate, lapatinib ditosylate, reference compound]
IC50 [2]: 4.53 µM
IC50 [3]: 0.0943 µM

CS(=O)(=O)CCNCc1ccc(-c2ccc3ncnc(Nc4ccc(OCc5cccc(F)c5)c(Cl)c4)c3c2)o1 [Lapatinib, reference compound]
IC50 ([9]; NCI-N87, 72 h): 0.0119 µM
T/C ([4]; 200 mg/kg oral once a day): 45.6%
TGI ([4]; 200 mg/kg oral once a day): 54.4%
Tumor Volume ([4]; 200 mg/kg oral once a day): 261 ± 42 mm^3
T/C ([11]; 80 mg/kg oral once a day): 83.4%
Tumor Volume ([11]; 80 mg/kg oral once a day): 1339 ± 167 mm^3

CCOc1cc2ncc(C#N)c(Nc3ccc(OCc4ccccn4)c(Cl)c3)c2cc1NC(=O)/C=C/CN(C)C [Neratinib, reference compound]
T/C ([4]; 80 mg/kg oral once a day): 34.3%
TGI ([4]; 80 mg/kg oral once a day): 65.7%
Tumor Volume ([4]; 80 mg/kg oral once a day): 197 ± 20 mm^3
Tumor Volume (Day 0) ([12]; 80 mg/kg group): 142.4 ± 23.4 mm^3
T/C ([12]; 80 mg/kg oral once a day): 7.2%
TGI ([12]; 80 mg/kg oral once a day): 92.8%
Tumor Volume ([12]; 80 mg/kg oral once a day): 53.7 ± 10.3*** mm^3
